Where “and” joins values, the source holds several entries; their conditions need not be identical. Equal entries are not always repeated. Entries after “also recorded” stand apart in the source; their conditions may differ. Where two headings read alike, the source gives them in different places.
Columns and labels:
[1] = test system: PKCε translocation in cultured DRG neurons; assay: PKCε translocation to the plasma membrane in cultured DRG neurons (immunocytochemistry, 50 cells per culture counted); assay type: cell-based, rat; conditions: for PKCε translocating cells after inhibitor pretreatment and CPTOMe stimulation: 15 min pretreatment (U73122/U73343 10 μM, 1-/2-butanol 50 mM), then CPTOMe 10 μM 90 s
Procedure: Cultures of dissociated dorsal root ganglia were prepared from male Sprague-Dawley rats (200-300 g, Charles River, Hollister, Calif., USA), adapting a previously described protocol (Khasar et al., 1999b). Rats were anesthetized with an overdose of Nembutal (50 mg per animal, s.c.). L1-L6 DRGs were removed, desheathed, pooled, incubated with collagenase (final concentration (f.c.) 0.125%, 1 h, 37° C.) followed by a trypsin digest (f.c. 0.25%, 7 min, 37° C.). Cells were separated by trituration with a fire polished Pasteur pipette. Axon stumps and dead cells were removed by straining (40 μm mesh), followed by centrifugation (3 min, 500 g). Cells were resuspended in 12 ml Neurobasal A/B27-media and plated 0.5 ml (=0.5 DRG equivalents) per culture onto polyornithine/laminin precoated glass cover slips (12 mm diameter) and incubated over night in 24-well plates at 37° C. in 5% CO2. Variability between batches of NeurobasalA media and its B27 supplement resulting in varying translocation of PKCε after stimulation was counteracted by the addition of up to […] ethanol (according to technical support of Invitrogen, less than 2.5% of the ethanol concentration already in the medium).
After a 15-20 h incubation, to allow cells to adhere to coverslips, the cells were stimulated. To ensure homogeneous dispersion of the stimulants, 250 μl of the 500 μl medium was removed, mixed thoroughly with the respective activator/inhibitor and added back to the same culture. […] Activators were added for the indicated time in concentrations based on literature reports. For all agonists time courses were established (some data not shown). Negative controls (unstimulated cells) were treated alike only without the addition of any pharmaceutical reagent. While the physiological stimulus epinephrine was used for the in vivo experiments, the β-AR agonist isoproterenol was used in vitro for identification of the β-AR subtype. After treatment the cells were washed once with phosphate buffered saline (PBS) and fixed with para-formaldehyde (PFA) (4%, 10 min, room temperature (RT)).
PFA-fixed cells were permeabilized with 0.1% Triton X-100 (10 min, RT), followed by three washes with 0.1% bovine serum albumin (BSA)/PBS (5 min, RT). After blockage of unspecific binding sites (5% BSA/10% normal goat serum/PBS, 1 h, RT) the cultures were probed with the respective primary antibody in 1% BSA/PBS (over night, 4° C.), washed three times (1% BSA/PBS, 5 min, RT) and incubated with the secondary fluorophore-coupled antiserum (final concentration (f.c.) 1:200, 1 h, RT). After three final washes (PBS, 5 min, RT), the cultures were mounted with Vectashield onto microscope slides and sealed with nail polish.
Cells were evaluated with a Nikon Microphot FXA microscope, using a 50× oil objective. 50 randomly selected cells per culture were evaluated. Data are plotted as mean percentage of translocating cells per evaluated culture±standard error of means (SEM) based on the number of evaluated cultures. All counting was done in blind fashion by the same observer. All treatments have been repeated with DRG-neurons from different rats, on at least 2 separate days. Confocal images were taken with a 100× oil immersion objective using a Zeiss Axiovert 100 microscope (Carl Zeiss Inc.) attached to a MRC 1000 confocal microscope (Bio-Rad). Epifluorescent images were taken with a 63× oil immersion objective using a Zeiss Axiovert 100 microscope.

Sprague-Dawley rats = assay: Mechanical nociceptive threshold, Randall-Selitto paw pressure test after intradermal injection; assay type: in vivo, rat; conditions: for change of baseline mechanical sensitivity (paw-withdrawal threshold): inhibitor alone, without stimulation (U73122/U73343 2.5 μl 1 μg/μl, 1-/2-butanol 2.5 μl); for CPTOMe-induced hyperalgesia after inhibitor preinjection: inhibitor preinjected 30 min before CPTOMe, positive = hyperalgesia; for reduction of paw-withdrawal threshold: agent alone, intradermal (epinephrine 0.1 μg, CPTOMe 6.3 μg in 2.5 μl), measured 30 min after injection; for effect on epinephrine-induced mechanical hyperalgesia: preinjection 30 min before epinephrine (also stated for CPTOMe)
Procedure: Behavioral experiments were performed on male Sprague-Dawley rats (200-300 g, Charles River, Hollister, Calif., USA). Animals were housed in a controlled environment in the Animal Care Facility of the University of California, San Francisco, under a 12 h light/dark cycle. Food and water were available ad libitum. Care and use of animals conformed to NIH guidelines. The UCSF Committee on Animal Research approved experimental protocols. All efforts were made to minimize the number of animals used. The nociceptive flexion reflex was quantified using the Randall-Selitto paw pressure device (Analgesymeter®, Stoetling), which applies a linearly increasing mechanical force to the dorsum of the rat's hind paw. The nociceptive mechanical threshold was defined as the force in grams at which the rat withdrew its paw. The protocols for this procedure have been previously described (Taiwo and Levine, 1989; Dina et al., 2003). Baseline paw-withdrawal threshold was defined as the mean of six readings before test agents were injected. Each paw was treated as an independent measure and each experiment was performed on a separate group of rats. Each group of rats was treated with only one agonist and/or antagonist injected peripherally by the intradermal route. Measurement of nociceptive threshold was taken 30 min after the administration of the hyperalgesic mediator. All behavioral testing was done between 10.00 and 16.00 h. The blocking agents were injected as described previously ([…] et al., 1995; […] et al., 1999a). […] […] et al., 1999a).

[2] = 15 min pretreatment (ICI 118,551 50 μM, D-609 30 μM, U73122/U73343 10 μM, 1-/2-butanol 50 mM, BIM 100 nM), then isoproterenol 1 μM 30 s
[3] = activator alone, 30 s stimulation (isoproterenol 1 μM, cholera toxin 1 μg/ml, forskolin 5 μM, CPTOMe 10 μM), mean±SEM

Molecule	PKCε translocating cells after inhibitor pretreatment and isoproterenol stimulation [1, 2]	PKCε translocating cells after inhibitor pretreatment and CPTOMe stimulation [1]	change of baseline mechanical sensitivity (paw-withdrawal threshold) (Sprague-Dawley rats)	CPTOMe-induced hyperalgesia after inhibitor preinjection (Sprague-Dawley rats)	also measured
CCC(C)O (stereo not shown) [2-butanol]	16.0±2.4%	21.8±2.7%	−8%±1.7%	33.4±1.7%	
CC(C)NC[C@H](O)c1ccc(O)c(O)c1 [isoproterenol, (−)-isoproterenol]					PKCε translocating cells [1, 3]: 21.3%±2.8% and 19.0±3.0%; time of maximal PKCε translocation ([1]; activator alone, time course): about 30 s
CO[C@@H]1[C@@H]2OP(=O)(O)OC[C@H]2O[C@H]1n1c(Sc2ccc(Cl)cc2)nc2c(N)ncnc21 [CPTOMe, 8-CPT-2′-O-Me-cAMP]					PKCε translocating cells [1]: 20.3±2.6% and 23.5±3.7%; time of maximal PKCε translocation ([1]; activator alone, time course): 90 s; CPTOMe-induced hyperalgesia (Sprague-Dawley rats; CPTOMe alone, comparator of the inhibitor experiment): 31.7%±0.8%; reduction of paw-withdrawal threshold (Sprague-Dawley rats): 34.6±1.6%
cholera toxin					PKCε translocating cells [1]: 15.2±3.0% and 24.0±1.9%; time of maximal PKCε translocation [1]: 90 s
CN(C)CCCn1cc(C2=C(c3c[nH]c4ccccc34)C(=O)NC2=O)c2ccccc21 [BIM, bisindolylmaleimide I]					PKCε translocating cells after inhibitor pretreatment and isoproterenol stimulation [1]: 19.8±1.3%
CCCCO [1-butanol]	5.5±1.1%	8.7±1.5%	−0.0%±1.8%	−0.5%±1.8%	effect on epinephrine-induced mechanical hyperalgesia (Sprague-Dawley rats): inhibits completely
COc1ccc2c(c1)CC[C@@H]1[C@@H]2CC[C@]2(C)[C@@H](NCCCCCCN3C(=O)C=CC3=O)CC[C@@H]12 [U73122]	0.3±0.3%	2.0±0.9%	−4.4%±1.3%	−2.5%±2.0%	effect on epinephrine-induced mechanical hyperalgesia (Sprague-Dawley rats): completely blocked
Cc1ncc2ccccc2c1C#N [CMIQ, 4-cyano-3-methylisoquinoline]					effect on isoproterenol-induced PKCε translocation ([1]; 15 min preincubation, up to 1000-fold IC50 (0.03-30 μM), then isoproterenol 1 μM 30 s): still translocated to the plasma membrane, as in control conditions; effect on mechanical paw-withdrawal threshold (Sprague-Dawley rats; CMIQ alone 2.5 μg/2.5 μl intradermally): did not change; effect on PKA catalytic subunit-induced hyperalgesia (Sprague-Dawley rats; CMIQ preinjected 15 min before PKAcs): completely abrogated; also recorded: completely blocked
Cc1ccc(OCC(O)C(C)NC(C)C)c2c1CCC2 (stereo not shown) [ICI 118,551]	3.0%±1.1%				
CNC[C@H](O)c1ccc(O)c(O)c1 [epinephrine]					reduction of paw-withdrawal threshold (Sprague-Dawley rats): 37.7±1.9%
S=C([S-])OC1CC2CC1C1CCCC21.[K+] [D-609]	20.8±2.9%				
C=C[C@@]1(C)CC(=O)[C@]2(O)[C@@]3(C)[C@@H](O)CCC(C)(C)[C@@H]3[C@H](O)[C@H](OC(C)=O)[C@@]2(C)O1 [forskolin]					PKCε translocating cells [1, 3]: 22.3±4.2%
COc1ccc2c(c1)CC[C@@H]1[C@@H]2CC[C@]2(C)[C@@H](NCCCCCCN3C(=O)CCC3=O)CC[C@@H]12 [U73343]	15.3±1.9%	23.7±3.6%	2.8%±1.9%	30.9%±1.9%	
